Measured values published in ChEMBL document CHEMBL5154737, “Semisynthesis and biological evaluation of (+)-sclerotiorin derivatives as antitumor agents for the treatment of hepatocellular carcinoma” (Eur J Med Chem, 2022).
Calls of active or inactive are those of the source. No cut-off for these calls is given here.

Key:
[1] = test system: Bel-7402; assay: Induction of apoptosis in human Bel-7402 cells assessed as early apoptotic cells at 2.5 uM incubated for 24 hrs in presence of U0126 by Annexin V and Dead cell kit assay (reference value: 3.7 %); assay type: functional
[2] = Acute toxicity in ICR mouse assessed as change in amount of food intake at 100 to 500 mg/kg, ip; assay type: organism-based; conditions: in vivo, dose 100-500 mg/kg
[3] = test system: Bel-7402; assay: Induction of apoptosis in human Bel-7402 cells assessed as viable cells at 5 uM incubated for 24 hrs by Annexin V and dead cell assay kit (reference value: 91.00%); assay type: functional; conditions: read-out: Activity
[4] = test system: Bel-7402; assay: Induction of apoptosis in human Bel-7402 cells assessed as dead cells at 2.5 uM incubated for 24 hrs by Annexin V and dead cell assay kit (reference value: 0.80 %); assay type: functional
[5] = Half life in Sprague-Dawley rat at 20 mg/kg, ip measured for 0.03 to 24 hrs by UPLC-MS analysis; assay type: ADME, organism-based; conditions: in vivo, time 0.03-24 hrs
[6] = Toxicity in BALB/c nude mouse xenografted with human Bel-7402 cells assessed as behavioural change at 10 to 20 mg/kg, ip bid; assay type: organism-based; conditions: in vivo, dose 10-20 mg/kg
[7] = test system: Bel-7402; assay: Induction of ERK degradation in human Bel-7402 cells at 2.5 uM incubated for 24 hrs in presence of choro-quine by Western blot analysis; assay type: cell-based
[8] = test system: Bel-7402; assay: Induction of caspase dependent apoptosis in human Bel-7402 cells assessed as reduction in cell proliferation inhibition upto 10 uM incubated for 24 hrs in presence of Z-vad-fmk by MTT assay; assay type: functional, cell-based
[9] = Toxicity in ICR mouse assessed as change in mean corpuscular volume at 100 mg/kg, ip qd (reference value: 51.3 fL); assay type: organism-based; conditions: in vivo
[10] = Toxicity in BALB/c nude mouse xenografted with Bel-7402 cells assessed as change in body weight at 20 mg/kg, ip qd measured every 2 days for 14 days; assay type: organism-based; conditions: in vivo, 336 h, time 14 day
[11] = test system: Bel-7402; assay: Cytotoxicity against human Bel-7402 cells assessed as LDH release at 2.5 uM incubated for 24 hrs by LDH assay; assay type: functional, cell-based
[12] = test system: PANC-1; assay: Cytotoxicity against human PANC-1 cells assessed as reduction in cell viability incubated for 72 hrs by MTT assay; assay type: functional, cell-based; conditions: PANC-1, 72 h
[13] = Toxicity in ICR mouse assessed as change in monocyte level at 100 mg/kg, ip qd (reference value: 3.2 %); assay type: organism-based; conditions: in vivo
[14] = Chronic toxicity in ICR mouse assessed as effect on lung morphology at 100 mg/kg, ip qd measured after 26 days by H and E staining method; assay type: organism-based; conditions: in vivo, 624 h, time 26 day
[15] = test system: Bel-7402; assay: Induction of apoptosis in human Bel-7402 cells assessed as increase in cleaved caspase-3 upto 2.5 uM incubated for 24 hrs by Western blot analysis; assay type: functional, cell-based
[16] = test system: Bel-7402; assay: Induction of apoptosis in human Bel-7402 cells assessed as late apoptotic cells at 0.625 uM incubated for 24 hrs by Annexin V and dead cell assay kit (reference value: 4.45 %); assay type: functional
[17] = Toxicity in ICR mouse assessed as change in red blood cell volume distribution width at 100 mg/kg, ip qd (reference value: 16.6 %); assay type: organism-based; conditions: in vivo
[18] = test system: Bel-7402; assay: Induction of apoptosis in human Bel-7402 cells assessed as late apoptotic cells at 2.5 uM incubated for 24 hrs in presence of U0126 by Annexin V and Dead cell kit assay (reference value: 3.85 %); assay type: functional
[19] = test system: Bel-7402; assay: Cytotoxicity against human Bel-7402 cells assessed as reduction in cell viability incubated for 72 hrs by MTT assay; assay type: functional, cell-based; conditions: Bel-7402, 72 h
[20] = Toxicity in ICR mouse assessed as change in white blood cell count at 100 mg/kg, ip qd (reference value: 4.0 10^9/L); assay type: organism-based; conditions: in vivo
[21] = test system: Bel-7402; assay: Cytotoxicity against human Bel-7402 cells assessed as increase LDH release at 2.5 to 5 uM by LDH assay; assay type: functional, cell-based; conditions: dose 2.5-5 µM, time 24-48 hrs, TDE = time-dependent effect
[22] = Biodistribution in tumor of mouse bearing tumor measured after 4 hr by ICG dye based fluorescence imaging; assay type: ADME, organism-based, Neoplasm; conditions: in vivo
[23] = test system: Bel-7402; assay: Induction of apoptosis in human Bel-7402 cells assessed as viable cells at 2.5 uM incubated for 24 hrs by Annexin V and dead cell assay kit (reference value: 91.00%); assay type: functional; conditions: read-out: Activity
[24] = test system: Bel-7402; assay: Induction of apoptosis in human Bel-7402 cells assessed as increase in cleaved PARP upto 2.5 uM incubated for 24 hrs by Western blot analysis; assay type: functional, cell-based
[25] = Cytotoxicity against human Biu-87 cells assessed as reduction in cell viability incubated for 72 hrs by MTT assay; assay type: functional, cell-based; conditions: BIU87, 72 h
[26] = test system: Bel-7402; assay: Induction of apoptosis in human Bel-7402 cells assessed as increase in cleaved caspase-9 upto 2.5 uM incubated for 24 hrs by Western blot analysis; assay type: functional, cell-based

SMILES: CC[C@H](C)/C=C(C)/C=C/C1=CC2=C(Cl)C(=O)[C@](C)(O)C(=O)C2=CN1Cc1ccc(OC(F)(F)F)cc1
- Activity [1]: 26.1%
- Activity [2]: Non-Toxic
- viability at 5 µM [3]: 8.2%
- Activity [4]: 3.35%
- half-life [5]: 2.5 h
- Activity [6]: Non-Toxic
- Activity [7]: Active
- Activity [8]: Active
- Activity [9]: 55 fL
- Activity [10]: Non-Toxic
- Activity [11]: Active
- IC50 [12]: 2.29 µM
- Activity [13]: 8.1%
- Activity [14]: Non-Toxic
- Activity [15]: Active
- Activity [16]: 3.1%
- Activity [17]: 13.5%
- Activity [18]: 36.9%
- IC50 [19]: 1.15 µM
- Activity [20]: 3.4 10^9/L
- Activity [21]: Tde
- Activity [22]: Active
- viability at 2.5 µM [23]: 44.9%
- Activity [24]: Active
- IC50 [25]: 2.76 µM
- Activity [26]: Active
